Test [1] has as its system SW620 cells (K-Ras G12V). The experiment in a line: 2D cell growth inhibition assay, SW620. The class given is cell-based. Particulars: Homo sapiens, SW-620, 144 h, 6 days, absolute IC50.
Test [2] deals with AGS cells (K-Ras G12D). The test can be described thus: 2D cell growth inhibition assay, AGS. The class given is cell-based. The settings on record: Homo sapiens, 144 h, 6 days, absolute IC50.
Test [3] has as its target T1, K-Ras G12V (Homo sapiens, UniProt P01116, G12V). The test can be described thus: SOS1 catalyzed nucleotide exchange assay (GDP form K-Ras), K-Ras G12V. Particulars: read-out: K-Ras G12V GDP Biochemical Activity (IC50).
Test [4] relates to AsPC-1 cells (K-Ras G12D). The test can be described thus: 2D cell growth inhibition assay, AsPC-1. Particulars: Homo sapiens, ASPC1, 144 h, AsPC-1, K-Ras G12D, 6 days, absolute IC50. The class given is cell-based.
Test [5] deals with T1, K-Ras G12V. The test can be described thus: biochemical.
Test [6] has as its system p-ERK in SW620 cells (K-Ras G12V). The test can be described thus: Phospho-ERK1/2(THR202/TYR204) HTRF assay, SW620. The format is cell-based. Particulars: Homo sapiens, SW-620, 2 h, 2 hours incubation.
Description: p-ERK (MAPK pathway) inhibition activity of each of compounds in a variety of K-Ras mutant and K-Ras WT cell lines indicated in Table 23 was evaluated.
Each of cells in culture medium was seeded in 96-well plates at density indicated in Table 23 and then put in a cell incubator to incubate overnight. The next day, the culture medium was removed and the compound diluted in assay medium was added in each well. […] 10 μL of cell lysates from the 96-well plates were transferred to a 384-well plate (Greiner) containing 2.5 μL/well HTRF® pre-mixed antibodies (Cisbio 64AERPEH). The plate was incubated 4 hours at 25° C. and then read HTRF signals on Tecan Spark multimode microplate reader. The data were analyzed using a 4-parameter logistic model to calculate IC50 values.
In test [7] the test system is p-ERK in AGS cells (K-Ras G12D). The test can be described thus: Phospho-ERK1/2(THR202/TYR204) HTRF assay, AGS. The settings on record: Homo sapiens, 2 h, 2 hours incubation. The format is cell-based.

The structures appear in SMILES notation. pIC50: −log10 of the molar value.

T1 sequence (P01116 1-169 isoform P01116-2 G12V): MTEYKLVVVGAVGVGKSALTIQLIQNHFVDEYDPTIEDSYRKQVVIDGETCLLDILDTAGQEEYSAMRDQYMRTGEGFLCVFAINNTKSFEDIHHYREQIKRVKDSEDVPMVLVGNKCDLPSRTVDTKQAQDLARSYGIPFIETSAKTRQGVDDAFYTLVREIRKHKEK

As for `C#Cc1c(F)ccc2cc(O)cc(-c3ncc4c(N5CCCOCC5C)nc(OC[C@@]56CCCN5C[C@H](F)C6)nc4c3F)c12` (mixture of isomers) [Compound 16, 5-ethynyl-6-fluoro-4-(8-fluoro-2-(((2R,7aS)-2-fluorotetrahydro-1H-pyrrolizin-7a(5H)-yl)methoxy)-4-(3-methyl-1,4-oxazepan-4-yl)pyrido[4,3-d]pyrimidin-7-yl)naphthalen-2-ol trifluoroacetic acid], the IC50 in test [1] came to 39.5 nM; in test [2], 18.6 nM; in test [4], 133 nM; in test [6] it was 19.4 nM; in test [7], 2.31 nM. In addition, the pIC50 is 8.83 in test [3] and 7.45 in test [5].
In the case of `C#Cc1c(F)ccc2cc(O)cc(-c3ncc4c(N5CCCO[C@@H]6C[C@@H]65)nc(OCC5(CN6CCOCC6)CC5)nc4c3F)c12` (single isomer, unassigned) [Compound 28B], the half-maximal inhibitory concentration (IC50) in test [1] stood at 6.63 nM; in test [2] it was 2.23 nM; in test [4] it was 18.2 nM; in test [6], 3.36 nM; in test [7], 1.33 nM. For the same compound, the negative-log IC50 (pIC50) is 8.64 in test [3] and 7.53 in test [5].
In the case of `C#Cc1c(F)ccc2cc(O)cc(-c3ncc4c(N5CCOCC(F)(F)C5)nc(OC[C@@]56CCCN5C[C@H](F)C6)nc4c3F)c12` [Compound 18, 4-(4-(6,6-difluoro-1,4-oxazepan-4-yl)-8-fluoro-2-(((2R,7aS)-2-fluorotetrahydro-1H-pyrrolizin-7a(5H)-yl)methoxy)pyrido[4,3-d]pyrimidin-7-yl)-5-ethynyl-6-fluoronaphthalen-2-ol trifluoroacetic acid], the IC50 in test [1] worked out at 5.68 nM; in test [2], 7.96 nM; in test [4], 95.7 nM; in test [6], 2.1 nM; in test [7], 5.99 nM. For the same compound, the pIC50 in test [3] was 8.85; in test [5] it was 6.97.
On to `C#Cc1c(F)ccc2cc(O)cc(-c3nc(C(F)F)c4c(N5CCCOCC5)nc(OC[C@@]56CCCN5C[C@H](F)C6)nc4c3F)c12` [Compound 34, 4-(5-(difluoromethyl)-8-fluoro-2-(((2R,7aS)-2-fluorotetrahydro-1H-pyrrolizin-7a(5H)-yl)methoxy)-4-(1,4-oxazepan-4-yl)pyrido[4,3-d]pyrimidin-7-yl)-5-ethynyl-6-fluoronaphthalen-2-ol trifluoroacetic acid], for which the concentration for half-maximal inhibition (IC50) in test [1] came to 205 nM; in test [2], 75.4 nM; in test [4], 323 nM; in test [6], 40 nM; in test [7] it was 19.4 nM. Also, the figures for the negative-log IC50 (pIC50) in test [3] and in test [5] were 8.67 and 6.32, respectively.
As to `C#Cc1c(F)ccc2cc(O)cc(-c3nc(C4CC4)c4c(N5CCCOCC5)nc(OC[C@@]56CCCN5C[C@H](F)C6)nc4c3F)c12` [Compound 35, 4-(5-cyclopropyl-8-fluoro-2-(((2R,7aS)-2-fluorotetrahydro-1H-pyrrolizin-7a(5H)-yl)methoxy)-4-(1,4-oxazepan-4-yl)pyrido[4,3-d]pyrimidin-7-yl)-5-ethynyl-6-fluoronaphthalen-2-ol trifluoroacetic acid], the half-maximal inhibitory concentration (IC50) in test [1] is 9.2 nM; in test [2], 5.63 nM; in test [4], 88.5 nM; in test [6], 11.9 nM; in test [7], 1.42 nM. The negative logarithm of the IC50 (pIC50) in test [3] is 8.24; in test [5] it was 7.66.
For the compound `C#Cc1c(F)ccc2cc(O)cc(-c3nc(CO)c4c(N5CCCOCC5)nc(OC[C@@]56CCCN5C[C@H](F)C6)nc4c3F)c12` [Compound 36, 5-ethynyl-6-fluoro-4-(8-fluoro-2-(((2R,7aS)-2-fluorotetrahydro-1H-pyrrolizin-7a(5H)-yl)methoxy)-5-(hydroxymethyl)-4-(1,4-oxazepan-4-yl)pyrido[4,3-d]pyrimidin-7-yl)naphthalen-2-ol trifluoroacetic acid], the IC50 was found to be 112 nM in test [1]; 37.3 nM in test [2]; 734 nM in test [4]; 48.8 nM in test [6]; 12.4 nM in test [7]. Moreover, the values for the pIC50 in test [3] and in test [5] were 8.10 and 6.57, respectively.
For `Oc1cc(-c2ncc3c(N4CCCOCC4)nc(OC[C@@]45CCCN4C[C@H](F)C5)nc3c2F)c2c(F)c(F)ccc2c1` [Compound 40, 5,6-difluoro-4-(8-fluoro-2-(((2R,7aS)-2-fluorotetrahydro-1H-pyrrolizin-7a(5H)-yl)methoxy)-4-(1,4-oxazepan-4-yl)pyrido[4,3-d]pyrimidin-7-yl)naphthalen-2-ol trifluoroacetic acid], the IC50 came to 24.8 nM in test [1]; 9.24 nM in test [2]; 91.3 nM in test [4]; 14.1 nM in test [6]; 5.68 nM in test [7]. For the same compound, the pIC50 in test [3] is 8.71; in test [5] it was 6.91.
For the compound `C#Cc1c(F)ccc2cc(O)cc(-c3nc(SC)c4c(N5CCCOCC5)nc(OC[C@@]56CCCN5C[C@H](F)C6)nc4c3F)c12` [Compound 47, 5-ethynyl-6-fluoro-4-(8-fluoro-2-(((2R,7aS)-2-fluorotetrahydro-1H-pyrrolizin-7a(5H)-yl)methoxy)-5-(methylthio)-4-(1,4-oxazepan-4-yl)pyrido[4,3-d]pyrimidin-7-yl)naphthalen-2-ol trifluoroacetic acid], the IC50 in test [1] was 41.6 nM; in test [2], 51.7 nM; in test [4], 106 nM; in test [6], 40.9 nM; in test [7], 17.7 nM. Moreover, the negative-log IC50 (pIC50) in test [3] is 8.36; in test [5], 6.82.
For the compound `C#Cc1c(F)ccc2cc(O)cc(-c3nc(OC4CC4)c4c(N5CCCOCC5)nc(OC[C@@]56CCCN5C[C@H](F)C6)nc4c3F)c12` [Compound 51, 4-(5-cyclopropoxy-8-fluoro-2-(((2R,7aS)-2-fluorotetrahydro-1H-pyrrolizin-7a(5H)-yl)methoxy)-4-(1,4-oxazepan-4-yl)pyrido[4,3-d]pyrimidin-7-yl)-5-ethynyl-6-fluoronaphthalen-2-ol trifluoroacetic acid], the half-maximal inhibitory concentration (IC50) was found to be 10.3 nM in test [1]; 9.66 nM in test [2]; 74.2 nM in test [4]; 8.5 nM in test [6]; 2.27 nM in test [7]. Further, the negative logarithm of the IC50 (pIC50) is 8.77 in test [3] and 7.66 in test [5].
With `C#Cc1c(F)ccc2cc(O)cc(-c3nc(OC(C)C)c4c(N5CCCOCC5)nc(OC[C@@]56CCCN5C[C@H](F)C6)nc4c3F)c12` [Compound 52, 5-ethynyl-6-fluoro-4-(8-fluoro-2-(((2R,7aS)-2-fluorotetrahydro-1H-pyrrolizin-7a(5H)-yl)methoxy)-5-isopropoxy-4-(1,4-oxazepan-4-yl)pyrido[4,3-d]pyrimidin-7-yl)naphthalen-2-ol trifluoroacetic acid], the IC50 in test [1] was determined as 5.66 nM; in test [2], 8.11 nM; in test [4], 40.4 nM; in test [6] it was 2.43 nM; in test [7], 9.66 nM. The pIC50 in test [3] was 8.73; in test [5] it was 7.78.
For the compound `C#Cc1c(F)ccc2cc(O)cc(-c3ncc4c(N5CC(F)(F)COCC5C)nc(OC[C@@]56CCCN5C[C@H](F)C6)nc4c3F)c12` (stereo partly drawn) [Compound 105, 4-(4-(6,6-difluoro-3-methyl-1,4-oxazepan-4-yl)-8-fluoro-2-(((2R,7aS)-2-fluorotetra-hydro-1H-pyrrolizin-7a(5H)-yl)methoxy)pyrido[4,3-d]pyrimidin-7-yl)-5-ethynyl-6-fluoronaphthalen-2-ol], the 50% inhibitory concentration (IC50) in test [1] is 104 nM; in test [2], 53.6 nM; in test [4] it was 326 nM; in test [6], 34.8 nM; in test [7] it was 23 nM. The pIC50 is 8.68 in test [3] and 6.42 in test [5].
`C#Cc1c(F)ccc2cc(O)cc(-c3ncc4c(N5[C@H]6COC[C@@H](C)[C@@H]5C6)nc(OC[C@@]56CCCN5C[C@H](F)C6)nc4c3F)c12` [Compound 111, 5-ethynyl-6-fluoro-4-(8-fluoro-2-(((2R,7aS)-2-fluorotetrahydro-1H-pyrrolizin-7a(5H)-yl)methoxy)-4-((1R,5S,6S)-5-methyl-3-oxa-7-azabicyclo[4.1.1]octan-7-yl)pyrido [4,3-d]pyrimidin-7-yl)naphthalen-2-ol]: the half-inhibitory concentration (IC50) was 73.8 nM in test [1]; 86 nM in test [2]; 390 nM in test [4]; 84 nM in test [6]; 17.4 nM in test [7]. Moreover, the values for the pIC50 in test [3] and in test [5] were 8.38 and under 6.00, respectively.
As for `C#Cc1c(F)ccc2cc(O)cc(-c3ncc4c(N5CCCOC6CC65)nc(OC[C@@H]5CCCN5C)nc4c3F)c12` (stereo partly drawn) [Compound 113, 4-(4-(2-oxa-6-azabicyclo[5.1.0]octan-6-yl)-8-fluoro-2-(((S)-1-methylpyrrolidin-2-yl)methoxy)pyrido[4,3-d]pyrimidin-7-yl)-5-ethynyl-6-fluoronaphthalen-2-ol], the half-inhibitory concentration (IC50) stood at 22.4 nM in test [1]; 9.76 nM in test [2]; 121 nM in test [4]; 10.4 nM in test [6]; 1.83 nM in test [7]. For the same compound, the pIC50 in test [3] was 8.78; in test [5] it was 7.54.

Source of the values: patent publication US20250019377A1 (JACOBIO PHARMACEUTICALS CO., LTD, priority 2021, published 2025).
